Reference: PubChem BioAssay AID1918954 (Molecular Pharmacology Branch, DTP, NCI, 2023)

Tested on: MDA-MB-468 complex spheroids with HUVEC/MSC, viability
Assay: Anticancer human tumor MDA-MB-468 cell line growth inhibition;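 further: spheroids exposed to agents for seven days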;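 on viability, T/C: 100% = DMSO vehicle control viability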
Settings: for IC50: curve of first compound; for viability, T/C: stronger effect = lower value
How it was run: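 Drug combinations with the LSD1 inhibitor iadademstat tested on tumor cells co-cultured as spheroids with endothelial cells and mesenchymal stem cells. Concentrations descended in half-log increments from clinical Cmax or 10 microM.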

SMILES: CC[C@@]1(O)C(=O)OCc2c1cc1n(c2=O)Cc2cc3c(CN(C)C)c(O)ccc3nc2-1 + NC1CCC(NC2CC2c2ccccc2)CC1
- IC50 (second compound 0.1 µM): 0.706 nM
- IC50 (second compound 0.316 µM): 0.777 nM
- IC50 (second compound 1 µM): 0.752 nM
- IC50 (second compound 3.16 µM): 0.62 nM
- IC50 (second compound 10 µM): < 0.316 nM
- viability, T/C (second compound 0.1 µM, first compound 0.000316 µM): 78%
- viability, T/C (second compound 0.1 µM, first compound 0.001 µM): 37.9%
- viability, T/C (second compound 0.1 µM, first compound 0.00316 µM): 13.1%
- viability, T/C (second compound 0.1 µM, first compound 0.01 µM): 7.64%
- viability, T/C (second compound 0.1 µM, first compound 0.0316 µM): 6.65%
- viability, T/C (second compound 0.1 µM, first compound 0.1 µM): 4.69%
- viability, T/C (second compound 0.316 µM, first compound 0.000316 µM): 83.4%
- viability, T/C (second compound 0.316 µM, first compound 0.001 µM): 40.8%
- viability, T/C (second compound 0.316 µM, first compound 0.00316 µM): 12.7%
- viability, T/C (second compound 0.316 µM, first compound 0.01 µM): 8.5%
- viability, T/C (second compound 0.316 µM, first compound 0.0316 µM): 4.51%
- viability, T/C (second compound 0.316 µM, first compound 0.1 µM): 4.68%
- viability, T/C (second compound 1 µM, first compound 0.000316 µM): 89.1%
- viability, T/C (second compound 1 µM, first compound 0.001 µM): 37.3%
- viability, T/C (second compound 1 µM, first compound 0.00316 µM): 12.6%
- viability, T/C (second compound 1 µM, first compound 0.01 µM): 8.19%
- viability, T/C (second compound 1 µM, first compound 0.0316 µM): 6.26%
- viability, T/C (second compound 1 µM, first compound 0.1 µM): 5.19%
- viability, T/C (second compound 3.16 µM, first compound 0.000316 µM): 64.5%
- viability, T/C (second compound 3.16 µM, first compound 0.001 µM): 40%
- viability, T/C (second compound 3.16 µM, first compound 0.00316 µM): 15.2%
- viability, T/C (second compound 3.16 µM, first compound 0.01 µM): 11.4%
- viability, T/C (second compound 3.16 µM, first compound 0.0316 µM): 5.77%
- viability, T/C (second compound 3.16 µM, first compound 0.1 µM): 6.13%
- viability, T/C (second compound 10 µM, first compound 0.000316 µM): 49.7%
- viability, T/C (second compound 10 µM, first compound 0.001 µM): 40.8%
- viability, T/C (second compound 10 µM, first compound 0.00316 µM): 14.1%
- viability, T/C (second compound 10 µM, first compound 0.01 µM): 8.51%
- viability, T/C (second compound 10 µM, first compound 0.0316 µM): 6.13%
- viability, T/C (second compound 10 µM, first compound 0.1 µM): 6.82%

SMILES: CCc1c2c(nc3ccc(O)cc13)-c1cc3c(c(=O)n1C2)COC(=O)[C@]3(O)CC + NC1CCC(NC2CC2c2ccccc2)CC1
- IC50 (second compound 0.1 µM): < 0.949 nM
- IC50 (second compound 0.316 µM): < 0.949 nM
- IC50 (second compound 1 µM): < 0.949 nM
- IC50 (second compound 3.16 µM): < 0.949 nM
- IC50 (second compound 10 µM): < 0.949 nM
- viability, T/C (second compound 0.1 µM, first compound 0.000949 µM): 7.86%
- viability, T/C (second compound 0.1 µM, first compound 0.003 µM): 7.19%
- viability, T/C (second compound 0.1 µM, first compound 0.00949 µM): 4.23%
- viability, T/C (second compound 0.1 µM, first compound 0.03 µM): 3.08%
- viability, T/C (second compound 0.1 µM, first compound 0.0949 µM): 2.21%
- viability, T/C (second compound 0.1 µM, first compound 0.3 µM): 2.02%
- viability, T/C (second compound 0.316 µM, first compound 0.000949 µM): 6.84%
- viability, T/C (second compound 0.316 µM, first compound 0.003 µM): 5.38%
- viability, T/C (second compound 0.316 µM, first compound 0.00949 µM): 3.66%
- viability, T/C (second compound 0.316 µM, first compound 0.03 µM): 3.28%
- viability, T/C (second compound 0.316 µM, first compound 0.0949 µM): 1.33%
- viability, T/C (second compound 0.316 µM, first compound 0.3 µM): 2.06%
- viability, T/C (second compound 1 µM, first compound 0.000949 µM): 6.78%
- viability, T/C (second compound 1 µM, first compound 0.003 µM): 6.71%
- viability, T/C (second compound 1 µM, first compound 0.00949 µM): 4.78%
- viability, T/C (second compound 1 µM, first compound 0.03 µM): 2.79%
- viability, T/C (second compound 1 µM, first compound 0.0949 µM): 1.75%
- viability, T/C (second compound 1 µM, first compound 0.3 µM): 2.02%
- viability, T/C (second compound 3.16 µM, first compound 0.000949 µM): 7.33%
- viability, T/C (second compound 3.16 µM, first compound 0.003 µM): 4.42%
- viability, T/C (second compound 3.16 µM, first compound 0.00949 µM): 4.73%
- viability, T/C (second compound 3.16 µM, first compound 0.03 µM): 3.2%
- viability, T/C (second compound 3.16 µM, first compound 0.0949 µM): 2.84%
- viability, T/C (second compound 3.16 µM, first compound 0.3 µM): 1.88%
- viability, T/C (second compound 10 µM, first compound 0.000949 µM): 6.82%
- viability, T/C (second compound 10 µM, first compound 0.003 µM): 5.98%
- viability, T/C (second compound 10 µM, first compound 0.00949 µM): 4.27%
- viability, T/C (second compound 10 µM, first compound 0.03 µM): 3.39%
- viability, T/C (second compound 10 µM, first compound 0.0949 µM): 2.46%
- viability, T/C (second compound 10 µM, first compound 0.3 µM): 2.29%
